Here are results for one sequence from patent US20260139017A1, “COMPOSITIONS AND METHODS USING REELIN IN ALZHEIMER'S DISEASE” (The General Hospital Corporation, priority 2022, published 2026).

In one assay the target is T1, NRP1 (Homo sapiens, UniProt O14786).
T1 construct: purchased R&D 3870-N1-025
T1 sequence (O14786 22-644 isoform O14786-2 limits assumed): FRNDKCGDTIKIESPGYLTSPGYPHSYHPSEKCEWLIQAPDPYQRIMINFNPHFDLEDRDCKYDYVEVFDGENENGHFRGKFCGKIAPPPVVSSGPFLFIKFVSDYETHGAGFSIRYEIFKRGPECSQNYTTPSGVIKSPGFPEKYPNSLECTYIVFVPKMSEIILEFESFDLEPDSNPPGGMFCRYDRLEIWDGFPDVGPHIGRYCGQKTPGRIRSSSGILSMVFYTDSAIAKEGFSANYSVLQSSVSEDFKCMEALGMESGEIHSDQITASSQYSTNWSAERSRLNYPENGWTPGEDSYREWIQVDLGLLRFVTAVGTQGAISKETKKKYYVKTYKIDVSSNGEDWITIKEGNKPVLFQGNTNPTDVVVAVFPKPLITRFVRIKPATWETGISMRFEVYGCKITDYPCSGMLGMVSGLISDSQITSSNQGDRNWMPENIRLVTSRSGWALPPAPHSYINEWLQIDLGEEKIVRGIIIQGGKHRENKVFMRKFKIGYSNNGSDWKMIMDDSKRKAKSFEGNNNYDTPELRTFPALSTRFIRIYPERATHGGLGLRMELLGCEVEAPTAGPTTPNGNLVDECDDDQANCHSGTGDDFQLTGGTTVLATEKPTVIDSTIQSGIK
Description: Bio-layer interferometry (BLI) of CTR-RELN-NRP-1 interactions. The assay is classed as binding. Conditions: Fc-fusion peptides. On the procedure:
Bio-layer interferometry (BLI) was additionally used to assess NRP1-protein kinetics at 30° C. and 1000 rpm agitation. 1 mg/mL NRP1 (R&D 3870-N1-025) was biotinylated at a 1:2 molar ratio, desalted, and immobilized on the SA biosensor tip (Pall ForteBio) surface. This was followed by 1) 180 seconds baseline buffer diluent, 2) loading of the ligand (NRP1), 3) 180 seconds baseline buffer diluent, 4) 240 seconds association (analyte), and 5) 300 seconds disassociation in assay buffer. Assay buffer: SD Buffer (pH7.4 PBS, 0.05% tween20, 0.01% BSA).
The experimental data were fit with the 1:1 binding model and analyzed with global fitting using Octet Data Analysis software to calculate KD.
Bio-layer interferometry (BLI) was used to assess NRP1-protein kinetics at 30° C. and 1000 rpm agitation using previously published methods. 1 mg/mL NRP1 (R&D 3870-N1-025) was biotinylated at a 1:2 molar ratio, desalted, and immobilized on the SA biosensor tip (Pall ForteBio) surface. This was followed by 1) 180 seconds baseline buffer diluent, 2) loading of the ligand (NRP1), 3) 180 seconds baseline buffer diluent, 4) 240 seconds association (analyte), and 5) 300 seconds disassociation in assay buffer. Assay buffer: SD Buffer (pH7.4 PBS, 0.05% tween20, 0.01% BSA).

Another assay deals with T2, APOER2 (Homo sapiens, UniProt Q14114).
T2 construct: purchased OnGene (so in the source)
T2 sequence (Q14114 33-963): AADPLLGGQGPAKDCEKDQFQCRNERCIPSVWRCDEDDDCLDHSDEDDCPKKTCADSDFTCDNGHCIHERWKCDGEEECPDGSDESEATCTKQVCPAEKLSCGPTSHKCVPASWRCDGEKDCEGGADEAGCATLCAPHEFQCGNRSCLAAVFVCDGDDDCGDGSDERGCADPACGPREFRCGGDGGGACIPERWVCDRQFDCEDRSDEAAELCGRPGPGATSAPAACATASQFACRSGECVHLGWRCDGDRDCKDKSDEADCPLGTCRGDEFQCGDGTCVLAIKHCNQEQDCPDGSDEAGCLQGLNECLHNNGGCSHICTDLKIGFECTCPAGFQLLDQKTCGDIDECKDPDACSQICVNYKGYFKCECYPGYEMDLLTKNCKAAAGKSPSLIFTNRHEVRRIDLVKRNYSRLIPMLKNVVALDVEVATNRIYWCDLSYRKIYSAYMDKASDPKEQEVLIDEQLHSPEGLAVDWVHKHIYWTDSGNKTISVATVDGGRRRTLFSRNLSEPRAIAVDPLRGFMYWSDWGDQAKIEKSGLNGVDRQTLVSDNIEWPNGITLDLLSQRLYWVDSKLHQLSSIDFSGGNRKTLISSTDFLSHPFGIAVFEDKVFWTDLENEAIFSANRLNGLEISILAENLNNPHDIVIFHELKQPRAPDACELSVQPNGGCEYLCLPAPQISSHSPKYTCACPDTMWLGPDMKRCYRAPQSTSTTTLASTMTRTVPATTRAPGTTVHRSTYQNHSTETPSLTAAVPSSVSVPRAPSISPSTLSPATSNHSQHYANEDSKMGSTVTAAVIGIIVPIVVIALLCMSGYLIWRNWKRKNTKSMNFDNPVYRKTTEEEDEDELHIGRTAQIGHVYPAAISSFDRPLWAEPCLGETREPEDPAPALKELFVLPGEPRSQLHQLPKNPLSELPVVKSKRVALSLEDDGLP
Description: ELISA cell-free binding of RELN variants to ApoEr2. On the procedure: Enzyme-linked immunosorbent assay (ELISA) was used to quantify changes in binding of RELN variants (media-derived full-length or CTR-RELN) to either VLDLr or ApoEr2 following an optimized version of a previously published protocol (6). Briefly, ELISA strips (DY008, R&D Systems) were coated with one ng/μL (100 μL/well) of VLDLr (8444-VL, R&D) or ApoEr2 (TP320903, OnGene) receptors diluted in 25 mM Tris HCl, 140 mM NaCl, […], two mM CaCl2), pH 7.4 (TBS-C buffer). After 18 h at four ° C. incubation, plates were blocked one h with three % BSA (22070008-6, Bioworld), 0.05% Tween-20 (Sigma Aldrich) TBS-C buffer. We assessed binding via incubation with 100 μL/well of serial dilutions of recombinant RELN protein (Ser1221-Gln2666, 8546-MR-050, R&D) or RELN variants in TBS-C buffer for one hour at room temperature. For detection, we used goat anti-mouse RELN primary antibody (LS-C793521-100, LS-Bio, 1:2,000, 100 μL/well) as primary antibody for one h at R.T. and (1:10,000; 100 μL/well, donkey anti-goat IgG H&L, HRP, ab6885, Abcam) as secondary antibody for 30 min. at R.T. Between each of the previous steps, plates were washed four times with TBS-C buffer (200 μL/well). Plates were washed three times prior to initiating the colorimetric reaction (DY008, R&D Systems). Stop solution (50 μL/well, DY008, R&D Systems) was added upon five min. incubation and the absorbance of the samples was measured at 450 nm using the Synergy 2 microplate reader (BioTek Instruments). Processing and analysis of the data was done using Gen5 1.11 software and GraphPad Prism, respectively.
Background: An ELISA detects its analyte on a solid surface through an enzyme-linked reagent.

Consider “RKQNYMMNFSRQHGLRRFYNRRRRSLRRYP [CTR-RELN H3447R]”, for which the “affinity for NRP1 relative to WT” value at NRP1 stood at 10 fold. Besides, the “binding to APOER2” value on APOER2 is listed as “unable to bind directly”.
